From US20250255874A1, “Methods for Treating Immune Thrombocytopenia By Administering (R)-2-[3-[4-Amino-3-(2-Fluoro-4-Phenoxy-Phenyl)Pyrazolo[3,4-D]Pyrimidin-1-YL]Piperidine-1-Carbonyl]-4-Methyl-4-[4-(Oxetan-3-YL)Piperazin-1-YL]Pent-2-Enentrile” (Principia Biopharma Inc., priority 2022, published 2025)
Marks after values point to notes of the source that are not given here.

Tested on: patients with relapsed/refractory immune thrombocytopenia
Experiment: Phase 1/2 study (NCT03395210) Part A, safety;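 further: adverse events graded by NCI CTCAE version 4.0, with worsening of pre-existing conditions counted as adverse events, analysed in the Safety Population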
[1] = 45 patients who initiated 400 bid

CC(C)(C=C(C#N)C(=O)N1CCC[C@@H](n2nc(-c3ccc(Oc4ccccc4)cc3F)c3c(N)ncnc32)C1)N1CCN(C2COC2)CC1 [rilzabrutinib, (R)-2-[3-[4-amino-3-(2-fluoro-4-phenoxy-phenyl)pyrazolo[3,4-d]pyrimidin-1-yl]piperidine-1-carbonyl]-4-methyl-4-[4-(oxetan-3-yl)piperazin-1-yl]pent-2-enenitrile]
3 (5) number of patients (percent): Abdominal pain, TEAEs Due to Any Cause, Any grade (Safety Population, N = 60) | Arthralgia, TEAEs Due to Any Cause, Grade 1 (Safety Population, N = 60) | Arthropod bite, TEAEs Due to Any Cause, Any grade (Safety Population, N = 60) | Arthropod bite, TEAEs Due to Any Cause, Grade 1 (Safety Population, N = 60) | Contusion, TEAEs Due to Any Cause, Grade 2 (Safety Population, N = 60) | Diarrhea, TEAEs Due to Any Cause, Grade 2 (Safety Population, N = 60) | Diarrhea, Treatment-Related TEAEs, Grade 2 (Safety Population, N = 60) | Dyspepsia, TEAEs Due to Any Cause, Grade 1 (Safety Population, N = 60)
6 (10) number of patients (percent): Abdominal distension, TEAEs Due to Any Cause, Any grade (Safety Population, N = 60) | Abdominal distension, TEAEs Due to Any Cause, Grade 1 (Safety Population, N = 60)
36%: treatment-related any-grade TEAE: diarrhea [1]
12 (27) number of patients (percent): Nausea, Treatment-Related TEAEs, Grade 1 (N = 45 initiated 400 mg bid)
84%: patients with ≥1 treatment-related, treatment-emergent adverse event (45 patients who initiated 400 mg bid)
19 (32) number of patients (percent): Diarrhea, TEAEs Due to Any Cause, Grade 1 (Safety Population, N = 60) | Diarrhea, Treatment-Related TEAEs, Any grade (Safety Population, N = 60)
15 (33) number of patients (percent): All related TEAEs, Treatment-Related TEAEs, Grade 2 (N = 45 initiated 400 mg bid)
30 (50) number of patients (percent): Any TEAE, TEAEs Due to Any Cause, Grade 2 (Safety Population, N = 60)
3 (7) number of patients (percent): Diarrhea, Treatment-Related TEAEs, Grade 2 (N = 45 initiated 400 mg bid) | Fatigue, Treatment-Related TEAEs, Grade 1 (N = 45 initiated 400 mg bid)
12 (20) number of patients (percent): Fatigue, TEAEs Due to Any Cause, Any grade (Safety Population, N = 60)
13 (29) number of patients (percent): Diarrhea, Treatment-Related TEAEs, Grade 1 (N = 45 initiated 400 mg bid)
11 (18) number of patients (percent): Contusion, TEAEs Due to Any Cause, Any grade (Safety Population, N = 60)
16 (27) number of patients (percent): Diarrhea, Treatment-Related TEAEs, Grade 1 (Safety Population, N = 60)
23 (51) number of patients (percent): All related TEAEs, Treatment-Related TEAEs, Grade 1 (N = 45 initiated 400 mg bid)
31 (52) number of patients (percent): Any TEAE, Treatment-Related TEAEs, Any grade (Safety Population, N = 60)
52%: patients with ≥1 treatment-related, treatment-emergent adverse event (60 patients who initiated rilzabrutinib at all doses)
9%: treatment-related any-grade TEAE: fatigue [1]
27 (45) number of patients (percent): Any TEAE, Treatment-Related TEAEs, Grade 1 (Safety Population, N = 60)
43 (72) number of patients (percent): Any TEAE, TEAEs Due to Any Cause, Grade 1 (Safety Population, N = 60)
1 (2) number of patients (percent): Fatigue, Treatment-Related TEAEs, Grade 2 (N = 45 initiated 400 mg bid) | Vomiting, Treatment-Related TEAEs, Grade 2 (N = 45 initiated 400 mg bid) | Abdominal discomfort, TEAEs Due to Any Cause, Any grade (Safety Population, N = 60) | Abdominal discomfort, TEAEs Due to Any Cause, Grade 1 (Safety Population, N = 60) | Abdominal discomfort, Treatment-Related TEAEs, Any grade (Safety Population, N = 60) | Abdominal discomfort, Treatment-Related TEAEs, Grade 1 (Safety Population, N = 60) | Abdominal pain, TEAEs Due to Any Cause, Grade 1 (Safety Population, N = 60) | Abnormal dreams, TEAEs Due to Any Cause, Any grade (Safety Population, N = 60) | Abnormal dreams, TEAEs Due to Any Cause, Grade 1 (Safety Population, N = 60) | Abnormal dreams, Treatment-Related TEAEs, Any grade (Safety Population, N = 60) | Abnormal dreams, Treatment-Related TEAEs, Grade 1 (Safety Population, N = 60) | Akathisia, TEAEs Due to Any Cause, Any grade (Safety Population, N = 60) | Akathisia, TEAEs Due to Any Cause, Grade 1 (Safety Population, N = 60) | Akathisia, Treatment-Related TEAEs, Any grade (Safety Population, N = 60) | Akathisia, Treatment-Related TEAEs, Grade 1 (Safety Population, N = 60) | Back pain, TEAEs Due to Any Cause, Grade 2 (Safety Population, N = 60) | Back pain, Treatment-Related TEAEs, Any grade (Safety Population, N = 60) | Back pain, Treatment-Related TEAEs, Grade 2 (Safety Population, N = 60) | Contusion, TEAEs Due to Any Cause, Grade 3/4 (Safety Population, N = 60) | Contusion, Treatment-Related TEAEs, Any grade (Safety Population, N = 60) | Contusion, Treatment-Related TEAEs, Grade 1 (Safety Population, N = 60) | Decreased appetite, TEAEs Due to Any Cause, Any grade (Safety Population, N = 60) | Decreased appetite, TEAEs Due to Any Cause, Grade 1 (Safety Population, N = 60) | Decreased appetite, Treatment-Related TEAEs, Any grade (Safety Population, N = 60) | Decreased appetite, Treatment-Related TEAEs, Grade 1 (Safety Population, N = 60) | Defecation urgency, TEAEs Due to Any Cause, Any grade (Safety Population, N = 60) | Defecation urgency, TEAEs Due to Any Cause, Grade 2 (Safety Population, N = 60) | Defecation urgency, Treatment-Related TEAEs, Any grade (Safety Population, N = 60) | Defecation urgency, Treatment-Related TEAEs, Grade 2 (Safety Population, N = 60) | Dyspepsia, TEAEs Due to Any Cause, Grade 2 (Safety Population, N = 60) | Dyspepsia, Treatment-Related TEAEs, Any grade (Safety Population, N = 60) | Dyspepsia, Treatment-Related TEAEs, Grade 1 (Safety Population, N = 60) | Edema, Treatment-Related TEAEs, Any grade (Safety Population, N = 60) | Edema, Treatment-Related TEAEs, Grade 1 (Safety Population, N = 60) | Epigastric discomfort, TEAEs Due to Any Cause, Any grade (Safety Population, N = 60) | Epigastric discomfort, TEAEs Due to Any Cause, Grade 2 (Safety Population, N = 60) | Epigastric discomfort, Treatment-Related TEAEs, Any grade (Safety Population, N = 60) | Epigastric discomfort, Treatment-Related TEAEs, Grade 2 (Safety Population, N = 60) | Erysipelas, TEAEs Due to Any Cause, Any grade (Safety Population, N = 60) | Erysipelas, TEAEs Due to Any Cause, Grade 2 (Safety Population, N = 60) | Erysipelas, Treatment-Related TEAEs, Any grade (Safety Population, N = 60) | Erysipelas, Treatment-Related TEAEs, Grade 2 (Safety Population, N = 60)
48 (80) number of patients (percent): Any TEAE, TEAEs Due to Any Cause, Any grade (Safety Population, N = 60)
8 (13) number of patients (percent): Back pain, TEAEs Due to Any Cause, Any grade (Safety Population, N = 60)
22 (37) number of patients (percent): Diarrhea, TEAEs Due to Any Cause, Any grade (Safety Population, N = 60)
5 (8) number of patients (percent): Arthralgia, TEAEs Due to Any Cause, Any grade (Safety Population, N = 60) | Conjunctival hemorrhage, TEAEs Due to Any Cause, Any grade (Safety Population, N = 60) | Conjunctival hemorrhage, TEAEs Due to Any Cause, Grade 1 (Safety Population, N = 60)
2 (3) number of patients (percent): Abdominal pain, TEAEs Due to Any Cause, Grade 2 (Safety Population, N = 60) | Abdominal pain, Treatment-Related TEAEs, Any grade (Safety Population, N = 60) | Abdominal pain, Treatment-Related TEAEs, Grade 2 (Safety Population, N = 60) | Alopecia, TEAEs Due to Any Cause, Any grade (Safety Population, N = 60) | Alopecia, TEAEs Due to Any Cause, Grade 1 (Safety Population, N = 60) | Anemia, TEAEs Due to Any Cause, Grade 2 (Safety Population, N = 60) | Anemia, TEAEs Due to Any Cause, Grade 3/4 (Safety Population, N = 60) | Arthralgia, TEAEs Due to Any Cause, Grade 2 (Safety Population, N = 60) | Costochondritis, TEAEs Due to Any Cause, Any grade (Safety Population, N = 60) | Costochondritis, TEAEs Due to Any Cause, Grade 1 (Safety Population, N = 60) | Cough, TEAEs Due to Any Cause, Any grade (Safety Population, N = 60) | Cough, TEAEs Due to Any Cause, Grade 1 (Safety Population, N = 60) | Dizziness, TEAEs Due to Any Cause, Any grade (Safety Population, N = 60) | Dizziness, TEAEs Due to Any Cause, Grade 1 (Safety Population, N = 60) | Dyspnea exertional, TEAEs Due to Any Cause, Any grade (Safety Population, N = 60) | Dyspnea exertional, TEAEs Due to Any Cause, Grade 1 (Safety Population, N = 60) | Dyspnea, TEAEs Due to Any Cause, Any grade (Safety Population, N = 60) | Dyspnea, TEAEs Due to Any Cause, Grade 1 (Safety Population, N = 60) | Edema, TEAEs Due to Any Cause, Any grade (Safety Population, N = 60) | Edema, TEAEs Due to Any Cause, Grade 1 (Safety Population, N = 60) | Epistaxis, TEAEs Due to Any Cause, Any grade (Safety Population, N = 60) | Epistaxis, TEAEs Due to Any Cause, Grade 1 (Safety Population, N = 60)
10 (17) number of patients (percent): Fatigue, TEAEs Due to Any Cause, Grade 1 (Safety Population, N = 60)
7 (12) number of patients (percent): Back pain, TEAEs Due to Any Cause, Grade 1 (Safety Population, N = 60) | Contusion, TEAEs Due to Any Cause, Grade 1 (Safety Population, N = 60)
4 (7) number of patients (percent): Abdominal distension, Treatment-Related TEAEs, Any grade (Safety Population, N = 60) | Abdominal distension, Treatment-Related TEAEs, Grade 1 (Safety Population, N = 60) | Anemia, TEAEs Due to Any Cause, Any grade (Safety Population, N = 60) | Dyspepsia, TEAEs Due to Any Cause, Any grade (Safety Population, N = 60)
31%: treatment-related any-grade TEAE: nausea [1]
15 (25) number of patients (percent): Any TEAE, Treatment-Related TEAEs, Grade 2 (Safety Population, N = 60)
8 (13)^† number of patients (percent): Any TEAE, TEAEs Due to Any Cause, Grade 3/4 (Safety Population, N = 60)
2 (4) number of patients (percent): Nausea, Treatment-Related TEAEs, Grade 2 (N = 45 initiated 400 mg bid) | Vomiting, Treatment-Related TEAEs, Grade 1 (N = 45 initiated 400 mg bid)
